Laboratory results reported in patent US10463658B2, “Method of inhibiting FLT3 kinase” (AROG Pharmaceuticals, LLC, priority 2013, dated 2019).
Positions count from the first letter of the chain named.

Legend:
[1] = molecular target: T1, FLT3 D835H (Homo sapiens, UniProt P36888, D835H); assay: KINOMEscan KdElect competitive binding assay, FLT3 D835H; conditions: tosylate salt
T1 construct: host or cells: E. coli BL21-derived host (T7 phage) or HEK-293
T1 sequence (P36888 610-943 D835H limits assumed): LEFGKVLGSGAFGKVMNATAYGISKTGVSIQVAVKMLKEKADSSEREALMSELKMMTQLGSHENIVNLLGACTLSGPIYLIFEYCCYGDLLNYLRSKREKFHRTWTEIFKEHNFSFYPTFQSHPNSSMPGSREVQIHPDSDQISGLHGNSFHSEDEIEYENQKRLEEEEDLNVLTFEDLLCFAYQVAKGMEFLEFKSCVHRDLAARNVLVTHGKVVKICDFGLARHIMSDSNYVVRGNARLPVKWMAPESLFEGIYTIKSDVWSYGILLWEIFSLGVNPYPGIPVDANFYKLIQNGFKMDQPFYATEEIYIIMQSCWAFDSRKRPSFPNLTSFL
Text: (§1) Competitive binding assay.
(§2) The lysates were then centrifuged and filtered.

[2] = molecular target: T2, FLT3 D835V (Homo sapiens, UniProt P36888, D835V); assay: KINOMEscan KdElect competitive binding assay, FLT3 D835V; conditions: tosylate salt
T2 construct: host or cells: E. coli BL21-derived host (T7 phage) or HEK-293
T2 sequence (P36888 610-943 D835V limits assumed): T1 sequence (P36888 610-943 D835H limits assumed) with H226V
Text: as §1, §2

[3] = molecular target: T3, FLT3 N841I (Homo sapiens, UniProt P36888, N841I); assay: KINOMEscan KdElect competitive binding assay, FLT3 N841I; conditions: tosylate salt; read-out: Binding Constant (Kd), FLT3 N841I
T3 construct: host or cells: E. coli BL21-derived host (T7 phage) or HEK-293
T3 sequence (P36888 610-943 N841I limits assumed): T1 sequence (P36888 610-943 D835H limits assumed) with H226D, N232I
Text: as §1, §2

[4] = test system: Ba/F3 expressing FLT3-D835Y/ITD cells; assay: Activity against Ba/F3 cells with FLT3-ITD and FLT3-D835Y mutation; assay type: cell-based; conditions: Mus musculus, BaF3; Ba/F3 FLT-ITD/D835Y cells; read-out: IC50 pFLT3 (text: decreased viability)
[5] = molecular target: T4, FLT3 ITD (Homo sapiens, UniProt P36888); conditions: read-out: Binding Constant (Kd), FLT3 ITD; CP-673,451 as tosylate salt
T4 sequence (P36888 1-993): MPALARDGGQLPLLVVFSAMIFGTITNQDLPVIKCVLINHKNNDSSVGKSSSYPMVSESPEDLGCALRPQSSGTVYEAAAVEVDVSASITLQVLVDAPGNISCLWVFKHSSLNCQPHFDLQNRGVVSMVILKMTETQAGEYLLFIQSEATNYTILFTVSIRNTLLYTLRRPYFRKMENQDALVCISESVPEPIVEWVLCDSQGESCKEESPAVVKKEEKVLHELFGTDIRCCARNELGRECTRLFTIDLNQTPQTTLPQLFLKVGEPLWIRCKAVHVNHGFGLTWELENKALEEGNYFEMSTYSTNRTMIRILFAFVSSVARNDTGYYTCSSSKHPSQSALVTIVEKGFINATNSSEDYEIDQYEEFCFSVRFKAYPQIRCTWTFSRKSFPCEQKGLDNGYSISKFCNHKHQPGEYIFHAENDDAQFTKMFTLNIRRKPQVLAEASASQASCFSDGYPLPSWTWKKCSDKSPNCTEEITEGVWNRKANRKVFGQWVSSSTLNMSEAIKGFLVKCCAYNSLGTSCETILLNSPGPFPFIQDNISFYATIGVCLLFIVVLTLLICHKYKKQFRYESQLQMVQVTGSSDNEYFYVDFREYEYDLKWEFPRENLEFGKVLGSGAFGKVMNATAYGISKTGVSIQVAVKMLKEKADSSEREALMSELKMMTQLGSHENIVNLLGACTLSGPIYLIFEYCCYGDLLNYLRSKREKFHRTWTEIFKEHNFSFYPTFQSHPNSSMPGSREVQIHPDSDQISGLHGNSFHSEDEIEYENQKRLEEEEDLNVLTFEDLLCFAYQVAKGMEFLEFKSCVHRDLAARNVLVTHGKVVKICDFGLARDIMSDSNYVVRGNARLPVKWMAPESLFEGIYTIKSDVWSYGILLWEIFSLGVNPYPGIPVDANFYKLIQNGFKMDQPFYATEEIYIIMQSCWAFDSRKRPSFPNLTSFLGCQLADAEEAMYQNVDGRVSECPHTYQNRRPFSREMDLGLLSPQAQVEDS

For `COCCOc1ccc2c(c1)ncn2-c1ccc2cccc(N3CCC(N)CC3)c2n1` [CP-673,451], the Kd [1] was 160 pM, the Kd [2] was 15 pM and the Kd [3] was 390 pM. The IC50 [4] was 23800 pM and the Kd [5] was 250 pM.
